We go through 22 molecules from patent publication US10052320B2, “Substituted quinoxalines as FGFR kinase inhibitors” (ASTEX THERAPEUTICS LIMITED, priority 2011, dated 2018).

Structures can show the parent of a compound that is named as a salt. A value given as a limit tells only on which side of the number the result lay.

Ba/F3-KDR-transfected cells, sequence (P35968 whole entry, change not shown): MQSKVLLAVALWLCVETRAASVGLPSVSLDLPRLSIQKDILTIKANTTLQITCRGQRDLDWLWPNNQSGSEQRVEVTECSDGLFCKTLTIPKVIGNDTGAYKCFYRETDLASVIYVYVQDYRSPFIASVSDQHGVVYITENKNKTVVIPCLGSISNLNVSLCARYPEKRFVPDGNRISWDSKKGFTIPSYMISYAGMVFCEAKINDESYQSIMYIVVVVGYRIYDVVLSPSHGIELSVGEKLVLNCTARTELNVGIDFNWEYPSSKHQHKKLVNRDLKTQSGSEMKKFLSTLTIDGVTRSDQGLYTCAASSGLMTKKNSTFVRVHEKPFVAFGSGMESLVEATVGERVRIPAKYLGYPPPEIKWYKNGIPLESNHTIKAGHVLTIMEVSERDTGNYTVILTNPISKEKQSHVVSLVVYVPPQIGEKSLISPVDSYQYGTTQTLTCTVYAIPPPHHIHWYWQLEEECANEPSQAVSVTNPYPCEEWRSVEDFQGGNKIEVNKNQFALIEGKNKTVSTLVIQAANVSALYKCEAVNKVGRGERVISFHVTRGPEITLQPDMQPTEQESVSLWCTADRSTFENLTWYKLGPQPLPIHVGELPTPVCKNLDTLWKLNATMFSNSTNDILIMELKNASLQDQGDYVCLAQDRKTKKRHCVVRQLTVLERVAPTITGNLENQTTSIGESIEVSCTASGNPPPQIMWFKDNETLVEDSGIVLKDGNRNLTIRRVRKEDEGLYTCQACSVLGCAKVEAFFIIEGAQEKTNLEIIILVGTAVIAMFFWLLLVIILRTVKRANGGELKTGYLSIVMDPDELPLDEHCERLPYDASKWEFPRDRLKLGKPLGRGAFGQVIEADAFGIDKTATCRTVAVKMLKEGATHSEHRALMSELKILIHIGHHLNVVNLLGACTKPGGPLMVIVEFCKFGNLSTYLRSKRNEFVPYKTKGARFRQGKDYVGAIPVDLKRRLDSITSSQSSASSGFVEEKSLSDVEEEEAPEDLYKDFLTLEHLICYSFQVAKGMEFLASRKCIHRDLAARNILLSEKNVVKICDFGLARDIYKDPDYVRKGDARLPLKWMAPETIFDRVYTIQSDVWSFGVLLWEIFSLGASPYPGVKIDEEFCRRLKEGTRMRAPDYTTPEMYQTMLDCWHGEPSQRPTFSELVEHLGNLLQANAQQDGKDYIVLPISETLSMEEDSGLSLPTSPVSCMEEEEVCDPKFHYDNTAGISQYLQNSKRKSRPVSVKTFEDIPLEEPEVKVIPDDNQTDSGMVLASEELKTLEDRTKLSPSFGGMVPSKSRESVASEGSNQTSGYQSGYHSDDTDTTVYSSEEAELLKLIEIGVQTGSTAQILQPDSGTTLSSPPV

The target of the first series is T1, Ba/F3-Flt3-transfected cells (Homo sapiens, UniProt P36888, cells depend on it, form not given).
T1 sequence (P36888 1-993): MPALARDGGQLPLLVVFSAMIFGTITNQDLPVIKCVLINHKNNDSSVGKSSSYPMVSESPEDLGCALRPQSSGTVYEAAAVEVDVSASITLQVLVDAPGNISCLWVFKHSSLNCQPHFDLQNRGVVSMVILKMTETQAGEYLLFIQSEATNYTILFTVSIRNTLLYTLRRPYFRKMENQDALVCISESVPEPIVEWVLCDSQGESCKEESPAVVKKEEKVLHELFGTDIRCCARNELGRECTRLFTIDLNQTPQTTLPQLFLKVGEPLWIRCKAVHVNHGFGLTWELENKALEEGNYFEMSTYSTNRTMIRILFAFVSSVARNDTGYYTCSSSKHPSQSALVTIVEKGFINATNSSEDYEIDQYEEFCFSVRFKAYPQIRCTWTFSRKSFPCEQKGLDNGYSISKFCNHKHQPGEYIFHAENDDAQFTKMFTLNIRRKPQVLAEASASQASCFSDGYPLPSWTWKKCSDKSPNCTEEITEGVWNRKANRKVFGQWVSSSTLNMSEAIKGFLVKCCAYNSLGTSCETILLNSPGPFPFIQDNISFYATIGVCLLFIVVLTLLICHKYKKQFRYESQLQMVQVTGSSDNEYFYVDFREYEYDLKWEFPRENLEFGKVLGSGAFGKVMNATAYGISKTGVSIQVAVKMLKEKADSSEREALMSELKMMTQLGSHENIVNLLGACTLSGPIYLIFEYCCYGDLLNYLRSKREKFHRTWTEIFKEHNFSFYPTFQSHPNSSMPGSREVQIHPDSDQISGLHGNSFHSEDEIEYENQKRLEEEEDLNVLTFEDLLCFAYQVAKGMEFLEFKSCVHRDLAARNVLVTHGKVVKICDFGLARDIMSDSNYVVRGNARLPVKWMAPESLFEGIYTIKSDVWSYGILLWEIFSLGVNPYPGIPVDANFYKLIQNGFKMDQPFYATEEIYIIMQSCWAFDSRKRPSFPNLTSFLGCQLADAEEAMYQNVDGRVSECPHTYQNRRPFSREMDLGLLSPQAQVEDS
Put plainly: Ba/F3-Flt3 (minus IL3) cellular proliferation assay, Alamar Blue. Type of series: cell-based. The note with it: minus IL3. The protocol:
Ba/F3-Flt3 (Minus IL3 or Plus IL3) (Cellular Proliferation Assay)
Cells were put in an incubator at 37° C. and 5% CO2. After 24 hours, 10 μl of Alamar Blue solution (0.5 mM K3Fe(CN)6, 0.5 mM KaFe(CN)6, 0.15 mM Resazurin and 100 mM Phosphate Buffer) was added to the wells, incubated for 4 hours at 37° C. and 5% CO2 before RFU's (Relative Fluorescence Units) (ex. 540 nm., em. 590 nm.) were measured in a flurorescence plate reader. […]
(§1) In a 96 well plate, 180 μl cell culture medium (phenol red free RPMI-1640, 10% FBS, 2 mM L-Glutamine and 50 μg/ml Gentamycin) containing 10000 cells per well of Ba/F3-Flt3-transfected cells were pipette and 20 μl of compound dilution in DMSO was added. Cells were put in an incubator at 37° C. and 5% CO2. After 24 hours, 40 μl of Alamar Blue solution (0.5 mM K3Fe(CN)6, 0.5 mM KaFe(CN)6, 0.15 mM Resazurin and 100 mM Phosphate Buffer) was added to the wells, incubated for 4 hours at 37° C. and 5% CO2 before RFU's (Relative Fluorescence Units) (ex. 540 nm., em. 590 nm.) were measured in a flurorescence plate reader.
As to `COc1cc(OC)cc(N(CC2CC2)c2ccc3ncc(-c4ccccc4)nc3c2)c1` [Compound 119], the “BAF3-FLT3 (MIN IL3) 384 well pIC50” value was below 5.

The target in another series is KDR (h) (VEGFR2) (Homo sapiens, UniProt P35968). Put plainly: KDR (VEGFR2) (enzymatic assay), TR-FRET. The format is biochemical.
KDR (h) (VEGFR2), sequence (P35968 20-1356): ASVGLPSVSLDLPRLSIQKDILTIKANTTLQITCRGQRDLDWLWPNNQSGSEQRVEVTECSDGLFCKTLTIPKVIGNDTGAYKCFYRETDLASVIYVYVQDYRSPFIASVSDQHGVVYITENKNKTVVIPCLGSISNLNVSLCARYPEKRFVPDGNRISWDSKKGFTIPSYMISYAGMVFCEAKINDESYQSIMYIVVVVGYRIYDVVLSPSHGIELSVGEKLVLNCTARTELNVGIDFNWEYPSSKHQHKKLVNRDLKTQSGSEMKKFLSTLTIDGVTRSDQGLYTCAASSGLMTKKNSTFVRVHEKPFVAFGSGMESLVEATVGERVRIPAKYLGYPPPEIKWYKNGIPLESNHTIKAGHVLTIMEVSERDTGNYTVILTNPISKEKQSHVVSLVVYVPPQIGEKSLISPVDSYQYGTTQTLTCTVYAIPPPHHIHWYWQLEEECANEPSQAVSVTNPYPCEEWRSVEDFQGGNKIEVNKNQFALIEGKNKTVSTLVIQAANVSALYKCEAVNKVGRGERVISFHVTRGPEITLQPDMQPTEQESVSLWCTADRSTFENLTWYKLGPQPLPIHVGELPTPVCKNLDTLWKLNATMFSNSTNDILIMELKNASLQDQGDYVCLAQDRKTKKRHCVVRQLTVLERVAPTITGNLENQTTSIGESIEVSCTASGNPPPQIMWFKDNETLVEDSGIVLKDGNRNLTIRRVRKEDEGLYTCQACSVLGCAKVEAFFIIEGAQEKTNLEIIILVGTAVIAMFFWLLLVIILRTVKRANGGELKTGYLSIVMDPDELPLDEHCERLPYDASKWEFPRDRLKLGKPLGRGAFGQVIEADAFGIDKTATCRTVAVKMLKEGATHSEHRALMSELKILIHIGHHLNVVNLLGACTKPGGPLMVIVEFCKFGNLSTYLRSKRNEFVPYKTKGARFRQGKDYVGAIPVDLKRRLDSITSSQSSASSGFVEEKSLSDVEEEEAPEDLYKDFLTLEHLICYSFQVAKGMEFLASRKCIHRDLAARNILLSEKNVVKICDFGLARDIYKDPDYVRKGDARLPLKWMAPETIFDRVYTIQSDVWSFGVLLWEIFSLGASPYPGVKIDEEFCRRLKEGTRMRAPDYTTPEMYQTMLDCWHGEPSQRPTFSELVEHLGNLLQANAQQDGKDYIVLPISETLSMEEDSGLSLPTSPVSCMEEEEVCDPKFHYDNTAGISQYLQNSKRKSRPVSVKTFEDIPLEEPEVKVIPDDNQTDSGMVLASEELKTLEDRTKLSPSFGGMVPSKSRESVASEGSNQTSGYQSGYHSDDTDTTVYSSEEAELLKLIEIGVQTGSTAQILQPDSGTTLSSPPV
Details: not given
On the procedure: KDR (VEGFR2) (Enzymatic Assay)
In a final reaction volume of 30 μL, KDR (h) (150 ng/ml) was incubated with 50 mM HEPES pH 7.5, 6 mM MnCl2, 1 mM DTT, 0.1 mM Na3VO4, 0.01% Triton-X-100, 500 nM Btn-Flt3 and 3 μM ATP in the presence of compound (1% DMSO final). After incubation for 120 minutes at room temperature the reaction was stopped with 2.27 nM EU-anti P-Tyr, 7 mM EDTA, 31.25 nM SA-XL-665 and 0.02% BSA which was present for 60 minutes at room temperature. Time-Resolved Fluorescence Resonance Energy Transfer (TR-FRET) signal (ex340 nm. Em 620 nm, em 655 nm) was measured afterwards and results are expressed in RFU (Relative Fluorescence Units).
For orientation: TR-FRET usually uses a lanthanide donor and a delayed reading to cut background.
The term IC50 denotes the concentration needed to halve the response being measured. The low end stands for higher potency, the high end for lower potency. In turn, `COc1cc(OC)cc(N(CC2CC2)c2ccc3ncc(-c4ccccc4)nc3c2)c1` [Compound 119] showed a half-inhibitory concentration (IC50) above 1 µM.

Test system in the next series: not given
Test: not given
Details: not given
By melting point is commonly meant the temperature of the solid-liquid transition. With `COc1cc(OC)cc(N(CCNC(C)C)c2ccc3ncc(-c4cccnc4)nc3c2)c1` (as salt: HCl) (hydrate or solvate) [Compound 10], the melting point was 174 °C. On the same count and under the same terms, the same measure for `COc1cc(OC)cc(N(CC2CC2)c2ccc3ncc(-c4ccc5c(ccn5C)c4)nc3c2)c1` (as salt: HCl) (hydrate or solvate) [Compound 20]: 105 °C; for `COc1cc(OC)cc(N(CCNC(C)C)c2ccc3ncc(N4CCC(CN)CC4)nc3c2)c1` (as salt: HCl) (hydrate or solvate) [Compound 67]: 193 °C. In turn, `COc1cc(OC)cc(N(CCNC(C)C)c2ccc3ncc(-n4cnc(CO)c4)nc3c2)c1` (as salt: HCl) (hydrate or solvate) [Compound 77] showed a melting point of 150 °C.

`COc1cc(OC)cc(N(CCNC(C)C)c2ccc3ncc(-c4ccccc4)nc3c2)c1` (as salt: HCl) (hydrate or solvate) [Compound 121] came in with a melting point of 149 °C. Still for that read-out and setting: the same measure for `COc1cc(OC)cc(N(CCNC(C)C)c2ccc3ncc(-c4ccnc(C(=O)NCCCN)c4)nc3c2)c1` (as salt: HCl) (hydrate or solvate) [Compound 146]: 188 °C. The same measure, in the same setting: the same measure for `COc1cc(OC)cc(N(CCCNCC(F)(F)F)c2ccc3ncc(C(=O)NCCN4CCOCC4)nc3c2)c1` (as salt: HCl) (hydrate or solvate) [Compound 158]: 138 °C; for `COc1cc(OC)cc(N(CCNC(C)C)c2ccc3ncc(C(=O)NCCCN4CCN(C)CC4)nc3c2)c1` (as salt: HCl) (hydrate or solvate) [Compound 159]: 176 °C. Turning to `COc1cc(OC)cc(N(CCNC(C)C)c2ccc3ncc(C(=O)NCCN4CCOCC4)nc3c2)c1` (as salt: HCl) (hydrate or solvate) [Compound 160], the melting point amounted to 149 °C. On the same count and under the same terms, the same measure for `COc1cc(OC)cc(N(CCNC(C)C)c2ccc3ncc(NCC4CCNCC4)nc3c2)c1` (as salt: HCl) (hydrate or solvate) [Compound 161]: 185 °C; for `COc1cc(OC)cc(N(CCNC(C)C)c2ccc3ncc(C(=O)N4CCN(C)CC4)nc3c2)c1` (as salt: HCl) (hydrate or solvate) [Compound 179]: 250 °C. Same read-out and setting: the figure for `COc1cc(OC)cc(N(CCNC(C)C)c2ccc3ncc(C(=O)N4CCCCC4)nc3c2)c1` (as salt: HCl) (hydrate or solvate) [Compound 180] is 236 °C; for `COc1cc(OC)cc(N(CCNC(C)C)c2ccc3ncc(C(=O)N4CCOCC4)nc3c2)c1` (as salt: HCl) (hydrate or solvate) [Compound 181] it is 255 °C; for `COc1cc(OC)cc(N(CCCNCC(F)(F)F)c2ccc3ncc(-c4ccn(C)c4)nc3c2)c1` (as salt: HCl) [Compound 5] it is 186 °C. The same measure, in the same setting: the figure for `COc1cc(OC)cc(N(CCNC(C)C)c2ccc3ncc(-c4ccn(C)c4)nc3c2)c1` (as salt: HCl) [Compound 8] is 200 °C; for `COc1cc(OC)cc(N(CC2CC2)c2ccc3ncc(-n4ccnc4C)nc3c2)c1` (as salt: HCl) [Compound 32] it is 223 °C; for `COc1cc(OC)cc(N(Cc2cccc(CN)n2)c2ccc3ncc(-c4ccc(N)nc4)nc3c2)c1` (as salt: HCl) [Compound 51] it is 170 °C. Molecule `COc1cc(OC)cc(N(CC2CC2)c2ccc3ncc(-c4ccn[nH]4)nc3c2)c1` (as salt: HCl) [Compound 58] registered a melting point of 134 °C.

With `COc1cc(OC)cc(N(CCNC(C)C)c2ccc3ncc(-c4ccn[nH]4)nc3c2)c1` (as salt: HCl) [Compound 189], the melting point came to 145 °C.

For `COCC(CN(c1cc(OC)cc(OC)c1)c1ccc2ncc(-c3cccnc3)nc2c1)OC(C)=O` (single isomer, unassigned) (as salt: HCl) (hydrate or solvate) [Compound 76], the melting point was found to be 80 °C. On the same count and under the same terms, the figure for `COc1cc(OC)cc(N(CCN2C(=O)c3ccccc3C2=O)c2ccc3ncc(-c4ccc(N)nc4)nc3c2)c1` [Compound 57] is 222 °C; for `COc1cc(OC)cc(N(CC2CC2)c2ccc3ncc(-c4ccccc4)nc3c2)c1` [Compound 119] it is 84 °C.

In a further series the target is Ba/F3-KDR-transfected cells (Homo sapiens, UniProt P35968). Put plainly: Ba/F3-KDR (minus IL3) cellular proliferation assay, Alamar Blue. The format is cell-based. Particulars: minus IL3. The protocol:
Ba/F3-KDR (Minus IL3 or Plus IL3) (Cellular Proliferation Assay)
as §1, with “a 384” for “a 96”, “plate, 100 nl of compound dilution in DMSO was sprayed before adding 50” for “plate, 180”, “containing 20000” for “containing 10000”, “of Ba/F3-KDR-transfected cells.” for “of Ba/F3-Flt3-transfected cells were pipette and 20 μl of compound dilution in DMSO was added.”, “hours, 10” for “hours, 40”
As a counterscreen the same experiment was performed in the presence of 10 ng/ml murine IL3.
as §1, with “Ba/F3-KDR-transfected” for “Ba/F3-Flt3-transfected”, “CO2” for “CO2 before”
On the technique in general: The colour change of resazurin is a common sign of viable cells or microbes.
On to `COc1cc(OC)cc(N(CC2CC2)c2ccc3ncc(-c4ccccc4)nc3c2)c1` [Compound 119], for which the “BAF3-KDR (MIN IL3) 384 well pIC50” value is given as below 5.
